# Results from patent publication US9732071B2, “Compounds useful as modulators of TRPM8” (Senomyx, Inc., priority 2015, dated 2017).
# Read-outs that look alike come from different tables or passages of the source.
# Legend:
# hTRPM8 = target: T1, hTRPM8 (Homo sapiens, UniProt Q7Z2W7); assay: hTRPM8 agonist assay in a mammalian cell line stably expressing hTRPM8; type: cell-based
# T1 construct: expressed in transfected cells
# Procedure: A mammalian cell line derivative which stably expresses hTRPM8 was used in biological assays in association with testing the present compounds with cool-tasting or -feeling properties (Servant et al. US 2007/0259354 A1 and references cited therein). Typical compound concentrations tested were 100 μM, 30 μM, 10 μM, 3.3 μM, 1.1 μM, 0.37 μM, 0.12 μM, 0.04 μM, 0.01 μM and more dilutions for very potent compounds. The present compounds have shown strong activity as agonists of hTRPM8. […] For the sake of comparison, the EC50 of Comparative Compound 1, which was previously disclosed in U.S. 2013/0324557 A1 and has the structure
# Solubility studies = type: physicochemical
# Procedure: For the sake of comparison, the solubility of Comparative Compound 1, which was previously disclosed in U.S. 2013/0324557 A1, was also measured.
# panelists = assay: Cool Line Scale Test (sensory study, cooling intensity versus 45 μM WS-3); type: in vivo, human; settings: for Sensory Results: cooling compared with 45 μM WS-3: 5 μM compound, Low Sodium Buffer pH ~7.1, 0.1% ethanol, 15 point line scale; for lingering effect: cool line scale test
# Procedure: A typical sensory study is described below followed by Table 5 summarizing sensory results of Compounds 101-105.
# All samples made with Low Sodium Buffer (LSB) pH ˜7.1 and contain 0.1% ethanol.
# Compounds are rated on a 15 point line scale where 45 μM WS-3 (N-Ethyl-p-menthane-3-carboxamide) is ranked as a 5 in cool intensity. In most cases, the compounds are tested to determine at what concentration the cooling intensity is equivalent to 45 μM WS-3. In each test, the panelist is presented with a 0 μM control sample, a 45 μM WS-3 control sample and the experimental compound sample and asked to rate the cooling intensity of each sample. [0218]
# [1] = cell line stably expressing hTRPM8, read-out: EC50
# [2] = aqueous buffer, pH 4.0, read-out: Solubility (pH 4.0)
# [3] = pH 7.1, aqueous buffer, read-out: Solubility (pH 7.1)
# T1 sequence (Q7Z2W7 whole entry): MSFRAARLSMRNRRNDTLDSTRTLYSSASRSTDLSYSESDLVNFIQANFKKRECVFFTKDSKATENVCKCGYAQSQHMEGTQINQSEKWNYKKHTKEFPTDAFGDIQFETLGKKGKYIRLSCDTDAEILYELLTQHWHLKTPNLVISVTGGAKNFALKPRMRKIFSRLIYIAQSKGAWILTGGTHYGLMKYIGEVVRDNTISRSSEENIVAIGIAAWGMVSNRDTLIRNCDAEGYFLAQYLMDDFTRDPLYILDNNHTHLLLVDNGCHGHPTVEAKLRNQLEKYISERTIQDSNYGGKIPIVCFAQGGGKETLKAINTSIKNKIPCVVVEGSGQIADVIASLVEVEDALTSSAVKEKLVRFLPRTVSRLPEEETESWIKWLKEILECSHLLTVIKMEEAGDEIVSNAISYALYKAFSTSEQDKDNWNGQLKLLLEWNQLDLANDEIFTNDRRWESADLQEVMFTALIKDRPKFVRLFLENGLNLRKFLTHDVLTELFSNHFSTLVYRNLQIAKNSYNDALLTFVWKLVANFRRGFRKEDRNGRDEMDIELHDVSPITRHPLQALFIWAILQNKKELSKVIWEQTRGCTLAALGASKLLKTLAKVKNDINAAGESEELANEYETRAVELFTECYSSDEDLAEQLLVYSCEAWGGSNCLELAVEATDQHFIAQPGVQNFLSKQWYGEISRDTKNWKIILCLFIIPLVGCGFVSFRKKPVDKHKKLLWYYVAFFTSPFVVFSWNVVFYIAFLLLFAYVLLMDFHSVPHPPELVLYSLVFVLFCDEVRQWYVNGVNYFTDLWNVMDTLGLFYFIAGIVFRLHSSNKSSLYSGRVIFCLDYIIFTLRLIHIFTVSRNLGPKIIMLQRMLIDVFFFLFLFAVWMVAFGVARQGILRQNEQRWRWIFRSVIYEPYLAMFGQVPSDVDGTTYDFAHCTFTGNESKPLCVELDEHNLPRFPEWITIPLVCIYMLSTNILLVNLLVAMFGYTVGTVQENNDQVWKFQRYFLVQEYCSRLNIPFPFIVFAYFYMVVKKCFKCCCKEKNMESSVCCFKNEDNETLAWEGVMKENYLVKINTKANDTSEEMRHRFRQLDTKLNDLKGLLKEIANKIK
Compound,EC50 (hTRPM8; [1]),solubility (Solubility studies; [2]),solubility (Solubility studies; [3]),Solubility (pH 4.0) (Solubility studies; pH 4.0),Solubility (pH 7.1) (Solubility studies),Sensory Results: cooling compared with 45 μM WS-3 (panelists),lingering effect (panelists),EC50 (hTRPM8)
"Cc1ccc(OCC(=O)N(Cc2cccs2)c2ccn[nH]2)cc1 [Comparative Compound 1, reference compound]",0.3 nM,106 µM,171 µM,–,–,–,–,–
"Cc1cccc(OCC(=O)N(Cc2cccs2)c2cc[nH]n2)c1 [Compound 101, N-(1H-pyrazol-3-yl)-N-(thiophen-2-ylmethyl)-2-(m-tolyloxy)acetamide]",6.1 nM,517 µM,152 µM,unexpectedly superior solubility,–,–,–,–
"O=C(COc1ccc(F)cc1)N(Cc1cccs1)c1cc[nH]n1 [Compound 102, 2-(4-flourophenoxy)-N-(1H-pyrazol-5-yl)-N-(thiophen-2-ylmethyl)acetamide]",10.7 nM,–,503 µM,–,unexpectedly superior solubility,–,–,–
"COc1ccc(OCC(=O)N(Cc2cccs2)c2cc[nH]n2)cc1 [Compound 103, 2-(4-methoxyphenoxy)-N-(1H-pyrazol-3-yl)-N-(thiophen-2-ylmethyl)acetamide]",4.9 nM,–,403 µM,–,unexpectedly superior solubility,equivalent to the cooling 45,unexpected lingering effect,–
"CCc1ccc(OCC(=O)N(Cc2cccs2)c2cc[nH]n2)cc1 [Compound 104, 2-(4-ethylphenoxy)-N-(1H-pyrazol-3-yl)-N-(thiophen-2-ylmethyl)acetamide]",< 1 nM,–,–,–,–,significantly more cooling,unexpected lingering effect,–
"Cc1ccc(OCC(=O)N(Cc2cccs2)c2cc[nH]n2)cc1C [Compound 105, 2-(3,4-dimethylphenoxy)-N-(1H-pyrazol-3-yl)-N-(thiophen-2-ylmethyl)acetamide]",–,–,–,–,–,–,unexpected lingering effect,0.7 nM
